Source: patent US4831151A, “Antimicrobial imidazolium derivatives” (Hoffmann-La Roche Inc., priority 1985, dated 1989)
Structures can show the parent of a compound that is named as a salt.

Experiments:
Litomosoides carinii = assay: Filaricidal activity in cotton rats infected with Litomosoides carinii; format: in vivo, Litomosoides carinii in cotton rats (Sigmodon hispidus); conditions: s.c., treated 14 weeks after infection, dissected 42 days after treatment; for ED90: Litomosoides carinii, sc, 1008 h, read-out: ED90 (dosage at which 90% of the worms removed from the pleural cavity are dead)
Method: (§1) The filaricidal activity of the compounds of formula I can be determined, for example, on cotton rats (Sigmodon hispidus) which have been infected with Litomosoides carinii. The infection with L. carinii is transmitted by the blood-sucking mite Bdellonyssus bacoti in which the development of the microfilaria to infectious larvae takes place. The cotton rats are infected by exposing them to bites of infected mites. 14 weeks after the infection groups of 2-4 animals are treated subcutaneously with the compound to be tested. 42 days after treatment with the compound to be tested the experimental animals are dissected, whereby the adult filaria are removed from the pleural cavity. Living and dead or encapsulated worms are separated from one another and weighed. The filaricidal activity is expressed as the percentage proportion of dead macrofilaria per treatment group. The ED90 is then determined by means of […] analysis using the values from different dosage groups. The ED90 is that dosage at which 90% of the worms removed from the pleural cavity are dead. In the following Table there are compiled the results which have been obtained in the previously described test with representative members of the class of compound defined by general formula I. Moreover, the Table contains data concerning the acute toxicity of some of these compounds in mg per kg in the case of single oral administration to mice.

[1] = Acute toxicity, single oral administration to mice; conditions: mouse, in vivo, p.o.
Method: as §1

| SMILES | ED90 (Litomosoides carinii) | LD50 [1] | ED90 (dosage at which 90% of the worms removed from the pleural cavity are dead) (Litomosoides carinii) |
| --- | --- | --- | --- |
| CCc1n(N=Cc2ccc(N(C)C)c3ccccc23)cc[n+]1N=Cc1ccc(N(C)C)c2ccccc12.[Cl-] [1,3-bis[[[4-(dimethylamino)-1-naphthyl]methylidene]amino]-2-ethyl-imidazolium chloride] | 3 mg/kg | 312 to 625 mg/kg | – |
| CCc1n(N=Cc2ccc(N(C)C)cc2)cc[n+]1N=Cc1ccc(N(C)C)cc1 [1,3-bis[[(p-dimethylamino)benzylidene]amino]-2-ethylimidazolium acetate] | 0.25 mg/kg | – | – |
| CCCCc1n(N=Cc2ccc(N(C)C)cc2)cc[n+]1N=Cc1ccc(N(C)C)cc1.[Cl-] [2-butyl-1,3-bis[[p-(dimethylamino)benzylidene]amino]imidazolium chloride] | < 0.25 mg/kg | – | – |
| Cc1n(N=Cc2ccc(N(C)C)cc2)cc[n+]1N=Cc1ccc(N(C)C)cc1 [drawing 12, 1,3-bis[[p-(dimethylamino)benzylidene]amino]-2-methylimidazolium salts] | – | 80 to 156 mg/kg | 1.6 mg/kg |
| CCCc1n(N=Cc2ccc(N(C)C)cc2)cc[n+]1N=Cc1ccc(N(C)C)cc1.[Cl-] [1,3-bis[[p-(dimethylamino)benzylidene]amino]-2-propyl-imidazolium chloride] | < 0.25 mg/kg | 62.5 to 125 mg/kg | – |
| CCc1n(N=Cc2ccc(N(C)C)cc2)cc[n+]1N=Cc1ccc([N+](=O)[O-])cc1 | < 1 mg/kg | – | – |
| CCc1n(N=Cc2ccc(N(CC)CC)cc2)cc[n+]1N=Cc1ccc(N(CC)CC)cc1 [1,3-bis[[p-diethylamino)benzylidene]amino]-2-ethyl-imidazolium chloride] | 0.75 mg/kg | – | – |
| Cc1n(N=Cc2ccc(N(C)C)cc2)cc[n+]1N=Cc1ccc(N(C)C)cc1 [drawing 13, 1,3-bis[[(p-dimethylamino)benzylidene]amino]-2-methylimidazolium acetate] | 0.85 mg/kg | – | – |
| CCc1n(N=Cc2ccc(N(C)C)cc2)cc[n+]1N=Cc1ccc(N(C)C)cc1.[Cl-] [1,3-bis[[p-(dimethyl-amino)benzylidene]amino]-2-ethylimidazolium chloride] | 0.4 mg/kg | 62.5 to 125 mg/kg | – |
